This is an account of results in patent US20140004209A1, “AUTOPHAGY INDUCER AND INHIBITOR COMBINATION THERAPY FOR THE TREATMENT OF NEOPLASMS” (GENENTECH, INC., priority 2010, published 2014).

One test relates to PTEN−/− and PTEN+/+ MEFs. The test can be described thus: Viability of PTEN−/− and PTEN+/+ MEFs (PI exclusion). In kind it is cell-based, mouse. As to conditions: 5 μM each, 1% FBS. The protocol: MEFs were treated with 5 μM each of II-4 and CQ under 1% FBS, and cell viability was determined at days 0, 2, and 3 by PI exclusion. Error bars represent SEM (n=3). (B) Mean tumor volumes of PC3 xenograft tumors treated daily with vehicle (Veh), Dox only, CQ only, or both Dox and CQ over a 28-d period. The vehicle and vehicle+CQ groups were followed for up to 18 d before terminated because of weight loss from the tumor burdens. Error bars represent SEM (n=10 tumors in each cohort). (C) Scatterplot of the tumor volumes in the Dox only and Dox+CQ groups on day 28 (P=0.05). Horizontal bars indicate mean tumor volumes. Numbers of tumors with complete remission (CR, dashed line) are indicated for each group. […]
Cell viability and cell cycle analysis. Cell number and viability was measured using trypan blue exclusion assay using a Vi-Cell Analyzer (Beckman Coulter), or labeled with 1 μg/ml PI in PBS/1% BSA followed by cytofluorometric analysis with a fluorescence-activated cell sorter (FACS) (Becton Dickinson). […] Caspase activation was analyzed using a Caspase-Glo 3/7 Assay kit (Promega). For cell cycle analysis, cells were fixed with drop-wise addition of chilled 70% ethanol, washed with PBS and resuspended in staining solution containing 50 μg/ml PI and 60 units of RNAse A. DNA content was analyzed by flow cytometry using the FlowJo and ModFit software (Becton Dickinson).

In test [1] the test system is PC3 cells. Nature of the test: PC3 cell viability and cell death (PI exclusion, annexin V, caspase-3/7). In kind it is cell-based, human. As to conditions: 4 μM II-4, 10 μM CQ, 0.5% FBS, 10 d.
In test [2] the test system is PC3 cells. The test can be described thus: Mitochondrial membrane potential (MitoPT dye) in PC3 cells. In kind it is cell-based, human. As to conditions: for mitochondrial membrane potential, II-4 (Akti-1/2) and CQ: 3 μM Akti-1/2, 10 μM CQ. Here is the method: FIG. 21. […] Images at 48 h are shown. […] Merged images between red and green channels are also shown (MitoPT-M). Scale bar: 20 μm. (B) Percentage of cells showing red punctate stains and diffuse green stains from treatments described in (A). >86 cells from two random fields of fluorescent images of each treatment were counted. Error bars represent standard deviations between the two fields. […] Total fluorescence intensity from all cells was collected using the Isocyte (Blueshift Biotechnologies), a laser scanning imager. Green fluorescence intensity is collected with a 488 nm laser and a 510-540 nm band pass filter, and normalized to cell number determined by Hoechst staining using a 405 nm laser and a 430-480 nm band pass filter. Error bars, standard deviation between two independent experiments. (D) Representative images of the green ROS signals and bright field (BF) taken under a Nikon TE300 inverted microscope. […] Scale bar: 20 μm.
Cell Culture and Reagents: The PTEN^−/− and PTEN^+/+ MEFs were maintained as previously described (Sun, H., R. Lesche, D. M. Li, J. Liliental, H. Zhang, J. Gao, N. Gavrilova, B. Mueller, X. Liu, and H. Wu, (1999), PTEN modulates cell cycle progression and cell survival by regulating phosphatidylinositol 3,4,5,-trisphosphate and Akt/protein kinase B signaling pathway. Proc Natl Acad Sci USA. 96:6199-204). The PC3 and U87MG cells were maintained at 37° C. and 5% CO2 in DMEM/Ham's F-12 (1:1) containing 10% tetracycline-free fetal bovine serum. II-4 was from Calbiochem (Akt inhibitor VIII) (Barnett, S. F., D. Defeo-Jones, S. Fu, P. J. Hancock, K. M. Haskell, R. E. Jones, J. A. Kahana, A. M. Kral, K. Leander, L. L. Lee, J. Malinowski, E. M. McAvoy, D. D. Nahas, R. G. Robinson, and H. E. Huber, (2005), Identification and characterization of pleckstrin-homology-domain-dependent and isoenzyme-specific Akt inhibitors. Biochem J. 385:399-408). […] Image-iT LIVE Green Reactive Oxygen Species Detection Kit was purchased from Molecular Probes. MitoPT Mitochondria Permeability Transition Detection Kit was purchased from Immunochemistry Technologies, LLC.

For test [3], the system named is PC3 cells. Nature of the test: Microarray analysis of autophagy gene expression in PC3 cells. The test is classed as cell-based, human. As to conditions: 1 or 5 μM for 6 or 24 hours, normalized to DMSO. Here is the method: PC3 cells were induced to express shRNA to indicated Akt isoforms for 72 hours by Doxycycline, RNA was extracted from both Dox treated (Dox+) or untreated control (Dox−) cells. Microarray analysis was carried out using Affymetrix chips. Ratios of the expression levels of each autophagy gene from Dox+ and Dox− samples are shown. Data are mean values from 3 independent experiments.
RNA was extracted from the cells. Microarray analysis was carried out using Affymetrix chips. Expression levels of each autophagy gene are normalized to the DMSO controls. Data are mean values from 3 independent experiments.

Test [4] concerns PC3 cells. The test can be described thus: Mitochondrial superoxide (MitoSOX red) and cellular ROS in PC3 cells. The test is classed as cell-based, human.
Procedure: (B) PC3 cells treated as in A were stained with the Image-iT LIVE green ROS Detection kit and examined by fluorescence microscopy at 24 h. […] (C) Quantification of MitoSOX red and ROS green fluorescence intensities by flow cytometry at 24 h. Cells were treated as in A and B. Error bars represent SEM (n=3).
Because mitochondria are the primary intracellular source of superoxide (O2^−) generation, we analyzed O2^− production using MitoSOX red, an O2^− indicator that accumulates in the mitochondria as a function of membrane potential and fluoresces upon oxidation and subsequent binding to DNA.
The subject of test [5] is PC3 cells. Nature of the test: Time-lapse microscopy of PC3 cells. The test is classed as cell-based, human. As to conditions: 5% FBS. The protocol: Time-lapse video microscopy: Cells cultured in 24-well plates were imaged on an Olympus IX81 inverted microscope under environmental control (37° C. and 5% CO2) for 3 days. Imaging started 6 hours after the addition of the compounds and was taken at 1-hour intervals.

“Also recorded” adds a separate entry of the source. Where two headings read alike, the source gives them in different places.

Turning to `O=c1[nH]c2ccccc2n1C1CCN(Cc2ccc(-c3nc4cc5nc[nH]c5cc4nc3-c3ccccc3)cc2)CC1` [II-4, 1-(1-(4-(7-phenyl-1H-imidazo[4,5-g]quinoxalin-6-yl)benzyl)piperidin-4-yl)-1H-benzo[d]imidazol-2 (3H)-one], in the test with PTEN−/− and PTEN+/+ MEFs, the “sensitivity of PTEN−/− vs PTEN+/+ MEFs to combined II-4 and CQ” value is reported as “significantly more sensitive”. Moreover, the “cell viability, II-4 (Akti-1/2) in combination with CQ” value with PC3 cells [1] is “CQ accelerated cell death in combination with II-4; also recorded: rapid drop in cell viability with complete cell death observed by day 10”; in the test on PC3 cells [1] (listed as Akti-1/2), “significantly accelerated death rate”. Besides, the “mitochondrial membrane potential, II-4 (Akti-1/2) and CQ” value with PC3 cells [2] is given as “almost complete loss of mitochondrial potential”; with PC3 cells [2] (listed as Akti-1/2) it was “CQ enhanced Akti-1/2-induced mitochondria depolarization”. The “mitochondrial membrane potential, agent alone” value in the test with PC3 cells [2] (0.5% FBS) is “caused a decrease in mitochondrial membrane potential”. Besides, the autophagy gene expression entry with PC3 cells [3] was “induce autophagy gene expression”. For the same compound, the “MitoSOX fluorescence, agent alone” value in the test on PC3 cells [4] is “increased MitoSOX fluorescence within 6 h”. The “cellular ROS levels, II-4 (Akti-1/2) with CQ” value is “cotreatment with CQ caused a prolonged increase in ROS levels” in the test with PC3 cells [4] and “caused a prolonged increase in vacuolar fluorescence” in the test on PC3 cells [4] (listed as Akti-1/2). Further, the “cellular ROS signal, agent alone” value is on record as “attenuated within 48 h” in the test with PC3 cells [4] and “first induced a homogeneous increase in ROS level, but by 48 hours the fluorescence became significantly reduced” in the test on PC3 cells [4] (listed as Akti-1/2). Besides, the “MitoSOX fluorescence, II-4 and CQ” value in the test with PC3 cells [4] (3 μM II-4, 10 μM CQ) was “significant increase in fluorescence intensity”. In addition, the “cell morphology, II-4 and CQ” value in the test on PC3 cells [5] (10 μM II-4, 10 μM CQ) is “cell shrinkage and plasma membrane rupture was observed within 48 h”. For the same compound, in the test with PC3 cells [5] (10 μM, 3 d), the “cell division and morphology, agent alone” value is “near-complete inhibition of cell division without overt cell death”.
